Like-named read-outs stand apart in the source and are kept apart here.
How the values were obtained:
Assay in all cases: biochemical
Assay type in all cases: biochemical
[1] = biological target: enzyme and uptake assay panel targets (Table 36) (Homo sapiens, UniProt Q9BYF1); settings: ACE-2 (h); 1.0E−05M; flag INTER: Test compound interferes with the assay detection method
[2] = biological target: enzyme and uptake assay panel targets (Table 36) (Homo sapiens, UniProt P42574); settings: caspase-3 (h); 1.0E−05M
[3] = biological target: enzyme and uptake assay panel targets (Table 36) (Homo sapiens, UniProt P06213); settings: IRK (h)(InsR); 1.0E−05M
[4] = biological target: enzyme and uptake assay panel targets (Table 36) (Homo sapiens, UniProt P28482); settings: ERK2 (h) (P42^mapk); 1.0E−05M
[5] = biological target: enzyme and uptake assay panel targets (Table 36) (Homo sapiens, UniProt P06241); settings: Fyn kinase (h); 1.0E−05M
[6] = biological target: enzyme and uptake assay panel targets (Table 36) (Homo sapiens, UniProt P17948); settings: FLT-1 kinase (h) (VEGFR1); 1.0E−05M
[7] = biological target: enzyme and uptake assay panel targets (Table 36) (Homo sapiens, UniProt P43403); settings: ZAP70 kinase (h); 1.0E−05M
[8] = biological target: enzyme and uptake assay panel targets (Table 36) (Homo sapiens, UniProt P12821); settings: ACE (h); 1.0E−05M; flag INTER: Test compound interferes with the assay detection method
[9] = biological target: enzyme and uptake assay panel targets (Table 36) (Homo sapiens, UniProt P24941); settings: CDK2 (h) (cycA); 1.0E−05M
[10] = biological target: enzyme and uptake assay panel targets (Table 36) (Homo sapiens, UniProt Q13370); settings: PDE3B (h); 1.0E−05M
[11] = biological target: enzyme and uptake assay panel targets (Table 36) (Homo sapiens, UniProt P09917); settings: 5-lipoxygenase (h); 1.0E−05M
[12] = biological target: enzyme and uptake assay panel targets (Table 36) (Homo sapiens, UniProt P23219); settings: COX1(h); 1.0E−05M
[13] = biological target: T1, enzyme and uptake assay panel targets (Table 36) (Bos taurus, UniProt P80457); settings: xanthine oxldase/superoxide 02 ^−scavenging, 1.0E−05M
T1 construct: other: xanthine oxidase/superoxide 02^−scavenging; nH; other: xanthine oxldase/superoxide 02 ^−scavenging; 1.0E−05M; ot; purified xanthine oxidase from bovine milk

[14] = biological target: enzyme and uptake assay panel targets (Table 36) (Homo sapiens, UniProt Q08499); settings: PDE4D2 (h); 1.0E−05M
[15] = biological target: enzyme and uptake assay panel targets (Table 36) (Homo sapiens, UniProt Q16539); settings: p38α kinase (h); 1.0E−05M
[16] = biological target: enzyme and uptake assay panel targets (Table 36) (Mus musculus, UniProt P29477); settings: inducible NOS; 1.0E−05M
[17] = biological target: enzyme and uptake assay panel targets (Table 36) (Homo sapiens, UniProt P08473); settings: Peptidase, Metalloproteinase, Neutral Endopeptidase; 1.0E−05M
[18] = biological target: enzyme and uptake assay panel targets (Table 36) (Homo sapiens, UniProt P00519); settings: Abl kinase (h); 1.0E−05M
[19] = biological target: enzyme and uptake assay panel targets (Table 36) (Homo sapiens, UniProt Q9UQM7); settings: CaMK2α (h); 1.0E−05M
[20] = biological target: enzyme and uptake assay panel targets (Table 36) (Homo sapiens, UniProt P03956); settings: MMP-1 (h); 1.0E−05M; flag INTER: Test compound interferes with the assay detection method
[21] = biological target: enzyme and uptake assay panel targets (Table 36) (Homo sapiens, UniProt P08253); settings: MMP-2 (h); 1.0E−05M
[22] = biological target: enzyme and uptake assay panel targets (Table 36) (Homo sapiens, UniProt P56817); settings: BACE-1 (h) (β-secretase); 1.0E−05M; flag INTER: Test compound interferes with the assay detection method
Chain of enzyme and uptake assay panel targets (Table 36) (Homo sapiens, UniProt P56817) (P56817 46-501): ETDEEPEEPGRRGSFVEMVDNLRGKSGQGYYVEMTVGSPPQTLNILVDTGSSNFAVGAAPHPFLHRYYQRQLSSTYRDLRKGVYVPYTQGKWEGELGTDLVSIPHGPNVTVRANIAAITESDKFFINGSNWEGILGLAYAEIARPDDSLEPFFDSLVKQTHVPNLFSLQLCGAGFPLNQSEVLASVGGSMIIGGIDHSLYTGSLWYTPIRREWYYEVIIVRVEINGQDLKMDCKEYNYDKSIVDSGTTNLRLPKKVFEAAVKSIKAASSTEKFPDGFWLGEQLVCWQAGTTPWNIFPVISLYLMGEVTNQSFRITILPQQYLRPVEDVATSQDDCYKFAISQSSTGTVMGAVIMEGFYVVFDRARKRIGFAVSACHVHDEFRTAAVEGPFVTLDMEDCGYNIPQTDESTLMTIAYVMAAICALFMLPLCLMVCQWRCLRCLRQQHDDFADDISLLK

Chain of enzyme and uptake assay panel targets (Table 36) (Homo sapiens, UniProt P08473) (P08473 whole entry): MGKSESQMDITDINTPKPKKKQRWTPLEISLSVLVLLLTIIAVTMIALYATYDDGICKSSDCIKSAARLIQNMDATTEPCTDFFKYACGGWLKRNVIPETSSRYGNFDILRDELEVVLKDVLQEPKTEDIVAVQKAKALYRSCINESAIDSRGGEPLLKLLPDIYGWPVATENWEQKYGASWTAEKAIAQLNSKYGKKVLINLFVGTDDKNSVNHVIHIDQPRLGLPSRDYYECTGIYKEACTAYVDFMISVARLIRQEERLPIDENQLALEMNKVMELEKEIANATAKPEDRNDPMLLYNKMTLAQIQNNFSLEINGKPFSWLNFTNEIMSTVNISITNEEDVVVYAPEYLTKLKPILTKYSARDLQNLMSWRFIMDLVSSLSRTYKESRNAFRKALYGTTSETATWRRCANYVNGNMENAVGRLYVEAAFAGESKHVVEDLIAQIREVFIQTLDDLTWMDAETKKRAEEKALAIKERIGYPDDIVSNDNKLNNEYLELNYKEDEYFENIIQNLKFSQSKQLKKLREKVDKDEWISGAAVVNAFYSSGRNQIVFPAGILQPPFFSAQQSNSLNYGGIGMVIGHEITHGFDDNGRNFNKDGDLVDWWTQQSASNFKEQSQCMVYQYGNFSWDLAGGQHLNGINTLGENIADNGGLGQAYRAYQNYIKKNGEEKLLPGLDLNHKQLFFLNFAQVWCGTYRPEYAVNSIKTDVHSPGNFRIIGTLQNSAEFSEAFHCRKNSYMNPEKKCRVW
Chain of enzyme and uptake assay panel targets (Table 36) (Homo sapiens, UniProt P23219) (P23219 24-599): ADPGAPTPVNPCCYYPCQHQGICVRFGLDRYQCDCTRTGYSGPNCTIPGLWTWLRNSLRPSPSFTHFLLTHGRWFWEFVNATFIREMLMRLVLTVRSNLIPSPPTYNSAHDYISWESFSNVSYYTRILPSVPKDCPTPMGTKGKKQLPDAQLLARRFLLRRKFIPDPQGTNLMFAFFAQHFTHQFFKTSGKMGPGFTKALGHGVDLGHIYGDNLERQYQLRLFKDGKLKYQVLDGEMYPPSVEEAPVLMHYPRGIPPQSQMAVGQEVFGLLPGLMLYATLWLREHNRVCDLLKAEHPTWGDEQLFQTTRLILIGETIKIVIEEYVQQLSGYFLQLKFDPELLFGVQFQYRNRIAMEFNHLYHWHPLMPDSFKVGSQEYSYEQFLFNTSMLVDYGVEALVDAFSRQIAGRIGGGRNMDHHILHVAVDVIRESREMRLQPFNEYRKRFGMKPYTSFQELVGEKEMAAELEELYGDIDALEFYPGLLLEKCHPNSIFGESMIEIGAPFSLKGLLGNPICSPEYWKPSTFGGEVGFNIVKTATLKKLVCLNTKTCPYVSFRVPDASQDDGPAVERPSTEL
Chain of enzyme and uptake assay panel targets (Table 36) (Homo sapiens, UniProt P03956) (P03956 100-469): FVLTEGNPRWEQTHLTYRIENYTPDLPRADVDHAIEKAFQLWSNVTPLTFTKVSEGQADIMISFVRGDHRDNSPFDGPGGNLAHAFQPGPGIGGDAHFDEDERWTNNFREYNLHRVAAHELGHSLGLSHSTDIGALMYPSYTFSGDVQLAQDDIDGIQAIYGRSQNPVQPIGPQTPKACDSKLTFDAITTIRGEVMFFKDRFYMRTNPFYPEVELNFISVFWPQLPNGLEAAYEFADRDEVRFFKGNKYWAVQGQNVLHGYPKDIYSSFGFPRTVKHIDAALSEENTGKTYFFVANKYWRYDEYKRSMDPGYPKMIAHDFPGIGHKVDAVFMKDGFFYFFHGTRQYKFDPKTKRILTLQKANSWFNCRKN
Chain of enzyme and uptake assay panel targets (Table 36) (Homo sapiens, UniProt P42574) (P42574 29-277): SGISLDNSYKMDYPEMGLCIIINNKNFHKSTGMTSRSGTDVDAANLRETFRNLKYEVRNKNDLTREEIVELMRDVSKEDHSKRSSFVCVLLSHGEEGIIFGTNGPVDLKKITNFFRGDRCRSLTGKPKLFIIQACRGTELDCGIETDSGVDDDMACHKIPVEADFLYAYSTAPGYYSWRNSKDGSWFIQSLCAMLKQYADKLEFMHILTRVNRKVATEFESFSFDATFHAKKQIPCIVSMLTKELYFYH
Chain of enzyme and uptake assay panel targets (Table 36) (Homo sapiens, UniProt P08253) (P08253 110-660): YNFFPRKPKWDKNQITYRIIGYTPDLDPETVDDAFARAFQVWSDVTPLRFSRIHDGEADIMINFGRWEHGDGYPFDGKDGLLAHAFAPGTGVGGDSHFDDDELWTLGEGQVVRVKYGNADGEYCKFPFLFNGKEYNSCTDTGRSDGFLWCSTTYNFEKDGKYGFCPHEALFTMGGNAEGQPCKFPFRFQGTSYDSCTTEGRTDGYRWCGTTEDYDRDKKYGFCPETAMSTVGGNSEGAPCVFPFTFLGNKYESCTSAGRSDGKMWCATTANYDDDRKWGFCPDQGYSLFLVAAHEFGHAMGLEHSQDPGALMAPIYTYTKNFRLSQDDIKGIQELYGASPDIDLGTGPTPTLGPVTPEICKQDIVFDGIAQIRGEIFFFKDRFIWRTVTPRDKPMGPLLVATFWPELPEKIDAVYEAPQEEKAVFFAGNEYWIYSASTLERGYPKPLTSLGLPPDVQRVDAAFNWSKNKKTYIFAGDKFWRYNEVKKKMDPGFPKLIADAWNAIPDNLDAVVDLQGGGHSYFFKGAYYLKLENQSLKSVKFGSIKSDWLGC
Chain of enzyme and uptake assay panel targets (Table 36) (Homo sapiens, UniProt Q9UQM7) (Q9UQM7 whole entry): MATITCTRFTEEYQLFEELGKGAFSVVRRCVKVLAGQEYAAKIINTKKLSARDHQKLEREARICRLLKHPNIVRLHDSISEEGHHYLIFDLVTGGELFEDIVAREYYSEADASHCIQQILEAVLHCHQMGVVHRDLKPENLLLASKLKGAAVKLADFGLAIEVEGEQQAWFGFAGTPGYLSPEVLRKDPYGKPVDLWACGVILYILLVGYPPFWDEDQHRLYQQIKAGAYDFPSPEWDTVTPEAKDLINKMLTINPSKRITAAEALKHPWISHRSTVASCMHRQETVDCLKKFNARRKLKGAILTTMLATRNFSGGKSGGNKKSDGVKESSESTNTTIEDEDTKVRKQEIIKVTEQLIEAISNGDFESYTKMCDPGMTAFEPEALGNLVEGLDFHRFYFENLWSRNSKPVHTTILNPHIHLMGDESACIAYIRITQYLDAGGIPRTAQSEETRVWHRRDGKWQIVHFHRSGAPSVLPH
T1 sequence (P80457 whole entry): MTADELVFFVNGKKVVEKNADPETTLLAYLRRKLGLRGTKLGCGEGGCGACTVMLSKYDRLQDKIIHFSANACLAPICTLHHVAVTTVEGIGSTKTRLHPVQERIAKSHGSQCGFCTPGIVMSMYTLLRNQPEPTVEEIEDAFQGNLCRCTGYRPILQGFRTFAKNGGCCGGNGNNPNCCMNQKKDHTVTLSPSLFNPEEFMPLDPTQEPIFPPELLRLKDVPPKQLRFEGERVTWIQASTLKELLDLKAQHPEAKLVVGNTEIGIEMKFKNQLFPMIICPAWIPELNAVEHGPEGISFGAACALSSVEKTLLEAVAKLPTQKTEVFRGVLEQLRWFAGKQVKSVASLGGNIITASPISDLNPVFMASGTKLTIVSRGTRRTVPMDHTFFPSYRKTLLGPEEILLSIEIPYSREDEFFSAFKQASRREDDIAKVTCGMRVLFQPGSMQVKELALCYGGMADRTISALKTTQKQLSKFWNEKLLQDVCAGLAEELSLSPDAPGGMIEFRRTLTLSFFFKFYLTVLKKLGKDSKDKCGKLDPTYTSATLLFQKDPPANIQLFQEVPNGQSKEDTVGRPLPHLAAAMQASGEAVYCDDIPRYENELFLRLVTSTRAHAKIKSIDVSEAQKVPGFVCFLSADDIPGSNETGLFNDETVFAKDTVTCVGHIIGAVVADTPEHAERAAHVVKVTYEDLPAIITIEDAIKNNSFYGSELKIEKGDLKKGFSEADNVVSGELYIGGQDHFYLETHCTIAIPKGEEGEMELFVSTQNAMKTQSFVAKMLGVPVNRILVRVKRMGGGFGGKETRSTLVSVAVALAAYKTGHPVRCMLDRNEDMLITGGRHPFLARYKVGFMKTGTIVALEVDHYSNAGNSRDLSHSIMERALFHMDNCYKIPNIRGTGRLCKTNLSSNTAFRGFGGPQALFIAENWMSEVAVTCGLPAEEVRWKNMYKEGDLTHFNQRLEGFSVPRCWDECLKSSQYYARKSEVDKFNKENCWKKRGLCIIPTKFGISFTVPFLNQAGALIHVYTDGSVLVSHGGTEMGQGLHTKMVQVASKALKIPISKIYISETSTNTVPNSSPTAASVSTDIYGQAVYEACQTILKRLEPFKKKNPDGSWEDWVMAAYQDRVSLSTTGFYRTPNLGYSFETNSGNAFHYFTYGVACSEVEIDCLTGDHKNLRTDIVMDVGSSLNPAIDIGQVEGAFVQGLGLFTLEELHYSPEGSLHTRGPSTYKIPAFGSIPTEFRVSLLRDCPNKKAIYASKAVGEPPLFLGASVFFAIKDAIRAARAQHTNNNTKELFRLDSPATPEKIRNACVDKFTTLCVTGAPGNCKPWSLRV

## [2H]C([2H])([2H])C(O)(c1nc2ccc(Cl)cc2cc1N)C([2H])([2H])[2H] [Compound I-1]
[1]
  % inhibition of Control Values 1st: 23.8%
  % inhibition of Control Values 2nd: 26.2%
  % inhibition of Control Values Mean: 25.0%
[2]
  % inhibition of Control Values 1st: −2.0%
  % inhibition of Control Values 2nd: 2.5%
  % inhibition of Control Values Mean: 0.2%
[3]
  % inhibition of Control Values 1st: −15.1%
  % inhibition of Control Values 2nd: −7.9%
  % inhibition of Control Values Mean: −11.5%
[4]
  % inhibition of Control Values 1st: −6.3%
  % inhibition of Control Values 2nd: −1.3%
  % inhibition of Control Values Mean: −3.8%
[5]
  % inhibition of Control Values 1st: −8.6%
  % inhibition of Control Values 2nd: −0.3%
  % inhibition of Control Values Mean: −4.5%
[6]
  % inhibition of Control Values 1st: −15.5%
  % inhibition of Control Values 2nd: −18.8%
  % inhibition of Control Values Mean: −17.2%
[7]
  % inhibition of Control Values 1st: 0.4%
  % inhibition of Control Values 2nd: 1.5%
  % inhibition of Control Values Mean: 1.0%
[8]
  % inhibition of Control Values 1st: 127.6%
  % inhibition of Control Values 2nd: 131.0%
  % inhibition of Control Values Mean: 129.3%
[9]
  % inhibition of Control Values 1st: 1.2%
  % inhibition of Control Values 2nd: −5.1%
  % inhibition of Control Values Mean: −1.9%
[10]
  % inhibition of Control Values 1st: 0.9%
  % inhibition of Control Values 2nd: −4.5%
  % inhibition of Control Values Mean: −1.8%
[11]
  % inhibition of Control Values 1st: 23.5%
  % inhibition of Control Values 2nd: 24.8%
  % inhibition of Control Values Mean: 24.2%
[12]
  % inhibition of Control Values 1st: 20.1%
  % inhibition of Control Values 2nd: −2.6%
  % inhibition of Control Values Mean: 8.8%
[13]; read-out: % inhibition of Control Values 1st
  inhibition at 10 µM: -3.1%
[13]; read-out: % inhibition of Control Values 2nd
  inhibition at 10 µM: 15.6%
[13]; read-out: % inhibition of Control Values Mean
  inhibition at 10 µM: 6.3%
[14]
  % inhibition of Control Values 1st: 15.9%
  % inhibition of Control Values 2nd: 16.9%
  % inhibition of Control Values Mean: 16.4%
[15]
  % inhibition of Control Values 1st: −3.2%
  % inhibition of Control Values 2nd: −3.1%
  % inhibition of Control Values Mean: −3.2%
[16]
  % inhibition of Control Values 1st: 2.8%
  % inhibition of Control Values 2nd: −2.0%
  % inhibition of Control Values Mean: 0.4%
[17]
  % inhibition of Control Values 1st: 0.3%
  % inhibition of Control Values 2nd: 3.0%
  % inhibition of Control Values Mean: 1.7%
[18]
  % inhibition of Control Values 1st: −4.8%
  % inhibition of Control Values 2nd: −11.6%
  % inhibition of Control Values Mean: −8.2%
[19]
  % inhibition of Control Values 1st: 0.2%
  % inhibition of Control Values 2nd: −6.5%
  % inhibition of Control Values Mean: −3.1%
[20]
  % inhibition of Control Values 1st: 45.3%
  % inhibition of Control Values 2nd: 10.7%
  % inhibition of Control Values Mean: 28.0%
[21]
  % inhibition of Control Values 1st: 4.9%
  % inhibition of Control Values 2nd: −2.4%
  % inhibition of Control Values Mean: 1.3%
[22]
  % inhibition of Control Values 1st: −4.1%
  % inhibition of Control Values 2nd: −5.7%
  % inhibition of Control Values Mean: −4.9%
